Values quoted from earlier work as cited in patent publication US9770423B2, “Modulation sAPP, sAAPα and BDNF levels in individuals diagnosed with FXS and ASD” (Indiana University Research and Technology Corp., priority 2012, dated 2017).

Key:
[1] = test system: fmr1 knockout mouse; conditions: literature; cited from earlier work
[2] = test system: subjects with FXS; conditions: cited from earlier work
[3] = test system: males with FXS; conditions: cited from earlier work
[4] = test system: drinking-in-the-dark mouse model; conditions: cited from earlier work
[5] = test system: adults with FXS; conditions: single dose, cited from earlier work
[6] = test system: cerebellar granule cells from FMR1 knockout mice; conditions: cultured cerebellar granule cells from FMR1 knockout mice; cited from earlier work
[7] = test system: persons with FXS and comorbid ASD; conditions: cited from earlier work

For `NC[C@H](CC(=O)O)c1ccc(Cl)cc1` (single isomer, unassigned) [STX209], the “effect on phenotype of fmr1 knockout mice” value (shortened to “effect on phenotype”) [1] is given as “correction of aberrant protein synthesis and dendritic spine abnormalities”, the “ABC-SW and VABS Socialization, post-hoc subset” value ([2]; 27 subject subset with baseline ABC-SW score of ≧8) is given as “significant STX209-associated improvement” and the “primary outcome measure, ABC Irritability (ABC-I) subscale” value ([2]; 63 subjects aged 6 to 40 years with FXS) is given as “not associated with improvement”. For the same molecule, the “Social Avoidance scale (ABC-SA), post-hoc analysis” value ([2]; 63 subjects with FXS) was “significant group-wide improvement”, the “global measures (CGI-I, CGI-S), other ABC subscales, Visual Analog Scale” value ([2]; 63 subjects with FXS) was “Group-wide effects were also not noted” and the subjects reporting sedation ([2]; 63 subjects with FXS) was 8%.
For `COC(=O)N1CC[C@@H]2[C@H]1CCC[C@@]2(O)C#Cc1cccc(C)c1` [AFQ056], the “response in subset with full FMR1 gene methylation (ABC, CGI-I, Visual Analogue Scale, Repetitive Behavior Scale-Revised)” value ([3]; 7 subject subset) is given as “significant response to AFQ056 compared to placebo” and the group treatment effect ([3]; 30 males with FXS aged 18 to 35 years) is given as “not associated with significant group treatment effect”.
In the case of `Cc1cccc(C#Cc2ccccc2)n1` [MPEP, 2-methyl-6-(phenylethynyl)-pyridine], the “effect on phenotype” value [1] is listed as “reverse phenotypic characteristics, including audiogenic seizures, altered pre-pulse inhibition (PPI), and open field hyperactivity”.
In the case of `Cc1nc(C#Cc2cccnc2)cs1` [MTEP, 3-((2-Methyl-4-thiazolyl)ethynyl)pyridine], the alcohol intake [4] is given as “reduced alcohol intake”.
For `CC(=O)[C@H]1CC[C@H]2[C@@H]3CC[C@H]4C[C@H](O)CC[C@]4(C)[C@H]3C(=O)C[C@]12C` [alphaxalone], the “effect on phenotype” value [1] is listed as “reductions in anxiety and rescue of audiogenic seizures”.
For `CN1CC(=O)NC1=NC(=O)Nc1cccc(Cl)c1` [fenobam], the “subjects experiencing mild sedation” value ([5]; 3 of 12 adults with FXS) is given as 25%, the “subjects who experienced clinical benefit” value ([5]; 9 of 12 adults with FXS, reductions in hyperactivity and anxiety) is given as 75% and the pharmacokinetics ([5]; 12 adults with FXS) is given as “variable pharmacokinetics”. The tolerability ([5]; 12 adults with FXS) was “good tolerability”.
For `Oc1noc2c1CCNC2` [gaboxadol], the “effect on phenotype” value [1] is listed as “restored neuron excitability deficits in the amygdala, reduced hyperactivity, and reduced PPI deficits”.
For `CC12CC3CC(C)(C1)CC(N)(C3)C2` [memantine], the “dendritic spine development and synapse formation” value [6] is listed as “correction of dendritic spine development and synapse formation”, the “subjects with clinical response (CGI-I very much improved or much improved)” value ([7]; four of 6 persons with FXS and comorbid ASD) is listed as 67% and the “subjects with treatment limiting irritability” value ([7]; of 6 persons) is listed as “Two subjects”.
In the case of `NCCS(=O)(=O)O` [taurine], the “effect on phenotype” value [1] is given as “Improvements in memory acquisition and retention”.
